{"source": "patent US10730874B2", "about": "(Shire Human Genetic Therapies, Inc., priority 2018, dated 2020)", "target": "human activated kallikrein enzyme (plasma kallikrein) (Homo sapiens (Human), UniProt P03952)", "sequence (P03952 391-638)": "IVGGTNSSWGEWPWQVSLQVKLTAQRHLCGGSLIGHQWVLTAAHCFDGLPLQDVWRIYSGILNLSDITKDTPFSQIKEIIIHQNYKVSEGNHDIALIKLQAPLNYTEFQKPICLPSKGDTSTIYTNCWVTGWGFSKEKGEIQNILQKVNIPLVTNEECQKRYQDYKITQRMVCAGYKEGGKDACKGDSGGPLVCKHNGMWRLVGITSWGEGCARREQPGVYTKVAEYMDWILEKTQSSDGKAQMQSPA", "sequence (P03952 20-390 partner)": "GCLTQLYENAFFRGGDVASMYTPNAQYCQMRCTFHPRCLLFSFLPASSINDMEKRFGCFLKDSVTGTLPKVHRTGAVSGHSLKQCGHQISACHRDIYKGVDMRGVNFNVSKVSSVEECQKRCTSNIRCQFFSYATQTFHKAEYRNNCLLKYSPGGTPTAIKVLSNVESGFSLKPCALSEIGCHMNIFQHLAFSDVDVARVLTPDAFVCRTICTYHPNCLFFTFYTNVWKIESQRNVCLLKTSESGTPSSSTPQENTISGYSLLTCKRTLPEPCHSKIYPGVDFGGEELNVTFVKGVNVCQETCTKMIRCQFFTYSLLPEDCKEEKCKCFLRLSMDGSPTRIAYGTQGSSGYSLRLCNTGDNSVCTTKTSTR", "experiment": "Inhibition of human activated plasma kallikrein, fluorogenic peptide substrate assay, 500 pM enzyme format", "assay_type": "biochemical", "experimental": "Example compounds were evaluated for inhibition of the human activated kallikrein enzyme in two formats of an assay employing a fluorogenic peptide substrate. In one assay format, the concentrations of reagents were as follows: 20 mM Tris pH 7.5, 1 mM EDTA, 150 mM sodium chloride, 0.1% PEG-400, 0.1% Triton X-100, 500 pM activated kallikrein enzyme, 300 uM Pro-Phe-Arg-7-amido-4-methylcoumarin substrate. Prior to reaction initiation with substrate, enzyme and inhibitors were preincubated for 30 min at RT. After initiation with substrate, reactions were incubated for 10 min at RT and fluorescence emission at 460 nm from 380 nm excitation measured with a microplate reader. In another assay format, the concentrations of reagents were as follows: 20 mM Tris pH 7.5, 1 mM EDTA, 150 mM sodium chloride, 0.1% PEG-400, 0.1% Triton X-100, 5 pM activated kallikrein enzyme, 300 uM Pro-Phe-Arg-7-amido-4-methylcoumarin substrate. Prior to reaction initiation with substrate, enzyme and inhibitors were preincubated for 30 min at RT. After initiation with substrate, reactions were incubated for 18 h at RT and fluorescence emission at 460 nm from 380 nm excitation measured with a microplate reader.", "key": {"[1]": {"conditions": "500 pM activated kallikrein enzyme, 300 uM Pro-Phe-Arg-7-amido-4-methylcoumarin substrate, 30 min preincubation, 10 min at RT, read-out: Primary Dose Response Assay: Average EC50"}}, "note": "Like-named read-outs stand apart in the source and are kept apart here.", "data": [{"smiles": "Cc1cc2nc(Cn3cc(C(=O)NCc4ncn5ccc(Br)cc45)cn3)cn2cc1C1CC1", "note": "[Example I-17, N-((7-bromoimidazo[1,5-a]pyridin-1-yl)methyl)-1-((6-cyclopropyl-7-methylimidazo[1,2-a]pyridin-2-yl)methyl)-1H-pyrazole-4-carboxamide]", "values": [{"measurement": "EC50", "setting": "[1]", "value": "1 to 10", "unit": "nM"}]}, {"smiles": "O=C(NCc1ncn2ccc(Cl)cc12)c1cnn(Cc2cn3cc(C(F)(F)F)ccc3n2)c1", "note": "[Example I-18, N-((7-chloroimidazo[1,5-a]pyridin-1-yl)methyl)-1-((6-(trifluoromethyl)imidazo[1,2-a]pyridin-2-yl)methyl)-1H-pyrazole-4-carboxamide]", "values": [{"measurement": "EC50", "setting": "[1]", "value": "1 to 10", "unit": "nM"}]}, {"smiles": "O=C(NCc1ncn2ccc(Br)cc12)c1cnn(Cc2cn3cc(C(F)(F)F)ccc3n2)c1", "note": "[Example I-19, N-((7-bromoimidazo[1,5-a]pyridin-1-yl)methyl)-1-((6-(trifluoromethyl)imidazo[1,2-a]pyridin-2-yl)methyl)-1H-pyrazole-4-carboxamide]", "values": [{"measurement": "EC50", "setting": "[1]", "value": "1 to 10", "unit": "nM"}]}, {"smiles": "O=C(NCc1ncn2ccc(Br)cc12)c1cnn(Cc2cn3cc(C4CC4)c(F)cc3n2)c1", "note": "[Example I-20, N-((7-bromoimidazo[1,5-a]pyridin-1-yl)methyl)-1-((6-cyclopropyl-7-fluoroimidazo[1,2-a]pyridin-2-yl)methyl)-1H-pyrazole-4-carboxamide]", "values": [{"measurement": "EC50", "setting": "[1]", "value": "1 to 10", "unit": "nM"}]}, {"smiles": "O=C(NCc1ncn2ccc(Cl)cc12)c1cnn(Cc2cn3cc(C4CC4)c(F)cc3n2)c1", "note": "[Example I-21, N-((7-chloroimidazo[1,5-a]pyridin-1-yl)methyl)-1-((6-cyclopropyl-7-fluoroimidazo[1,2-a]pyridin-2-yl)methyl)-1H-pyrazole-4-carboxamide]", "values": [{"measurement": "EC50", "setting": "[1]", "value": "1 to 10", "unit": "nM"}]}, {"smiles": "O=C(NCc1ncn2ccc(Cl)cc12)c1cnn(Cc2cn3c(C4CC4)cccc3n2)c1", "note": "[Example I-22, N-((7-chloroimidazo[1,5-a]pyridin-1-yl)methyl)-1-((5-cyclopropylimidazo[1,2-a]pyridin-2-yl)methyl)-1H-pyrazole-4-carboxamide]", "values": [{"measurement": "EC50", "setting": "[1]", "value": "100 to 2000", "unit": "nM"}]}, {"smiles": "O=C(NCc1ncn2ccc(Cl)cc12)c1cnn(Cc2cn3c(Cl)c(C4CC4)ccc3n2)c1", "note": "[Example I-23, 1-((5-chloro-6-cyclopropylimidazo[1,2-a]pyridin-2-yl)methyl)-N-((7-chloroimidazo[1,5-a]pyridin-1-yl)methyl)-1H-pyrazole-4-carboxamide]", "values": [{"measurement": "EC50", "setting": "[1]", "value": "< 1", "unit": "nM"}]}, {"smiles": "O=C(NCc1ncn2ccc(Cl)cc12)c1cnn(Cc2cn3cc(C4CC4)c(Cl)cc3n2)c1", "note": "[Example I-24, 1-((7-chloro-6-cyclopropylimidazo[1,2-a]pyridin-2-yl)methyl)-N-((7-chloroimidazo[1,5-a]pyridin-1-yl)methyl)-1H-pyrazole-4-carboxamide]", "values": [{"measurement": "EC50", "setting": "[1]", "value": "1 to 10", "unit": "nM"}]}, {"smiles": "O=C(NCc1ncn2ccc(Br)cc12)c1cnn(Cc2cn3cc(C4CC4)c(Cl)cc3n2)c1", "note": "[Example I-25, N-((7-bromoimidazo[1,5-a]pyridin-1-yl)methyl)-1-((7-chloro-6-cyclopropylimidazo[1,2-a]pyridin-2-yl)methyl)-1H-pyrazole-4-carboxamide]", "values": [{"measurement": "EC50", "setting": "[1]", "value": "1 to 10", "unit": "nM"}]}, {"smiles": "Cc1ccc2nc(Cn3cc(C(=O)NCc4ncn5ccc(Br)cc45)cn3)cn2c1C", "note": "[Example I-26, N-((7-bromoimidazo[1,5-a]pyridin-1-yl)methyl)-1-((5,6-dimethylimidazo[1,2-a]pyridin-2-yl)methyl)-1H-pyrazole-4-carboxamide]", "values": [{"measurement": "EC50", "setting": "[1]", "value": "1 to 10", "unit": "nM"}]}, {"smiles": "O=C(NCc1ncn2ccc(Cl)cc12)c1cnn(Cc2cn3c(Br)cccc3n2)c1", "note": "[Example I-27, 1-((5-bromoimidazo[1,2-a]pyridin-2-yl)methyl)-N-((7-chloroimidazo[1,5-a]pyridin-1-yl)methyl)-1H-pyrazole-4-carboxamide]", "values": [{"measurement": "EC50", "setting": "[1]", "value": "1 to 10", "unit": "nM"}]}, {"smiles": "Cc1cc2nc(Cn3cc(C(=O)NCc4ncn5ccc(Cl)cc45)cn3)cn2cc1Br", "note": "[Example I-28, 1-((6-bromo-7-methylimidazo[1,2-a]pyridin-2-yl)methyl)-N-((7-chloroimidazo[1,5-a]pyridin-1-yl)methyl)-1H-pyrazole-4-carboxamide]", "values": [{"measurement": "EC50", "setting": "[1]", "value": "1 to 10", "unit": "nM"}]}, {"smiles": "O=C(NCc1ncn2ccc(Cl)cc12)c1cn(Cc2cn3cc(C4CC4)ccc3n2)c2cccnc12", "note": "[Example I-29, N-((7-chloroimidazo[1,5-a]pyridin-1-yl)methyl)-1-((6-cyclopropylimidazo[1,2-a]pyridin-2-yl)methyl)-1H-pyrrolo[3,2-b]pyridine-3-carboxamide]", "values": [{"measurement": "EC50", "value": "10 to 100", "unit": "nM"}]}, {"smiles": "O=C(NCc1ncn2ccc(Br)cc12)c1cn(Cc2cn3cc(C4CC4)ccc3n2)c2cccnc12", "note": "[Example I-30, N-((7-bromoimidazo[1,5-a]pyridin-1-yl)methyl)-1-((6-cyclopropylimidazo[1,2-a]pyridin-2-yl)methyl)-1H-pyrrolo[3,2-b]pyridine-3-carboxamide]", "values": [{"measurement": "EC50", "value": "1 to 10", "unit": "nM"}]}, {"smiles": "COCc1nn(Cc2cn3cc(C4CC4)ccc3n2)cc1C(=O)NCc1ncn2ccc(Cl)cc12", "note": "[Example I-31, N-((7-chloroimidazo[1,5-a]pyridin-1-yl)methyl)-1-((6-cyclopropylimidazo[1,2-a]pyridin-2-yl)methyl)-3-(methoxymethyl)-1H-pyrazole-4-carboxamide]", "values": [{"measurement": "EC50", "setting": "[1]", "value": "< 1", "unit": "nM"}]}, {"smiles": "COCc1c(C(=O)NCc2ncn3ccc(Cl)cc23)cnn1Cc1cn2cc(C3CC3)ccc2n1", "note": "[Example I-32, N-((7-chloroimidazo[1,5-a]pyridin-1-yl)methyl)-1-((6-cyclopropylimidazo[1,2-a]pyridin-2-yl)methyl)-5-(methoxymethyl)-1H-pyrazole-4-carboxamide]", "values": [{"measurement": "EC50", "setting": "[1]", "value": "10 to 100", "unit": "nM"}]}, {"smiles": "Cc1ccc2nc(Cn3cc(C(=O)NCc4ncn5ccc(Cl)c(Cl)c45)cn3)cn2c1", "note": "[Example I-33, N-((7,8-dichloroimidazo[1,5-a]pyridin-1-yl)methyl)-1-((6-methylimidazo[1,2-a]pyridin-2-yl)methyl)-1H-pyrazole-4-carboxamide]", "values": [{"measurement": "EC50", "setting": "[1]", "value": "10 to 100", "unit": "nM"}]}, {"smiles": "CCc1c(Cl)ccc2nc(Cn3cc(C(=O)NCc4ncn5ccc(Cl)cc45)cn3)cn12", "note": "[Example I-34, 1-((6-chloro-5-ethylimidazo[1,2-a]pyridin-2-yl)methyl)-N-((7-chloroimidazo[1,5-a]pyridin-1-yl)methyl)-1H-pyrazole-4-carboxamide]", "values": [{"measurement": "EC50", "setting": "[1]", "value": "10 to 100", "unit": "nM"}]}, {"smiles": "Cc1ccc2nc(Cn3cc(C(=O)NCc4ncn5ccc(Cl)c(C)c45)cn3)cn2c1", "note": "[Example I-35, N-((7-chloro-8-methylimidazo[1,5-a]pyridin-1-yl)methyl)-1-((6-methylimidazo[1,2-a]pyridin-2-yl)methyl)-1H-pyrazole-4-carboxamide]", "values": [{"measurement": "EC50", "setting": "[1]", "value": "100 to 2000", "unit": "nM"}]}, {"smiles": "O=C(NCc1ncn2ccc(Cl)cc12)c1cnn(Cc2cn3cc(Br)c(Cl)cc3n2)c1", "note": "[Example I-36, 1-((6-bromo-7-chloroimidazo[1,2-a]pyridin-2-yl)methyl)-N-((7-chloroimidazo[1,5-a]pyridin-1-yl)methyl)-1H-pyrazole-4-carboxamide]", "values": [{"measurement": "EC50", "setting": "[1]", "value": "10 to 100", "unit": "nM"}]}, {"smiles": "O=C(NCc1ncn2ccc(Br)cc12)c1cnn(Cc2cn3cc(Br)c(Cl)cc3n2)c1", "note": "[Example I-37, 1-((6-bromo-7-chloroimidazo[1,2-a]pyridin-2-yl)methyl)-N-((7-bromoimidazo[1,5-a]pyridin-1-yl)methyl)-1H-pyrazole-4-carboxamide]", "values": [{"measurement": "EC50", "setting": "[1]", "value": "10 to 100", "unit": "nM"}]}, {"smiles": "O=C(NCc1ncn2ccc(Cl)cc12)c1cnc(Cc2cn3cc(C4CC4)ccc3n2)s1", "note": "[Example I-38, N-((7-chloroimidazo[1,5-a]pyridin-1-yl)methyl)-2-((6-cyclopropylimidazo[1,2-a]pyridin-2-yl)methyl)thiazole-5-carboxamide]", "values": [{"measurement": "EC50", "setting": "[1]", "value": "1 to 10", "unit": "nM"}]}, {"smiles": "O=C(NCc1ncn2ccc(Cl)cc12)c1cnn(Cc2cn3c(Cl)c(Br)ccc3n2)c1", "note": "[Example I-39, 1-((6-bromo-5-chloroimidazo[1,2-a]pyridin-2-yl)methyl)-N-((7-chloroimidazo[1,5-a]pyridin-1-yl)methyl)-1H-pyrazole-4-carboxamide]", "values": [{"measurement": "EC50", "setting": "[1]", "value": "1 to 10", "unit": "nM"}]}, {"smiles": "O=C(NCc1ncn2ccc(Br)cc12)c1cnn(Cc2cn3c(Cl)c(Br)ccc3n2)c1", "note": "[Example I-40, 1-((6-bromo-5-chloroimidazo[1,2-a]pyridin-2-yl)methyl)-N-((7-bromoimidazo[1,5-a]pyridin-1-yl)methyl)-1H-pyrazole-4-carboxamide]", "values": [{"measurement": "EC50", "setting": "[1]", "value": "< 1", "unit": "nM"}]}, {"smiles": "CC1(C)CC1c1ccn2cc(Cn3cc(C(=O)NCc4ncn5ccc(Cl)cc45)cn3)nc2c1", "note": "(stereo not shown) [Example I-41, N-((7-chloroimidazo[1,5-a]pyridin-1-yl)methyl)-1-((7-(2,2-dimethylcyclopropyl)imidazo[1,2-a]pyridin-2-yl)methyl)-1H-pyrazole-4-carboxamide]", "values": [{"measurement": "EC50", "setting": "[1]", "value": "10 to 100", "unit": "nM"}]}, {"smiles": "CC(C)=Cc1ccn2cc(Cn3cc(C(=O)NCc4ncn5ccc(Cl)cc45)cn3)nc2c1", "note": "[Example I-42, N-((7-chloroimidazo[1,5-a]pyridin-1-yl)methyl)-1-((7-(2-methylprop-1-en-1-yl)imidazo[1,2-a]pyridin-2-yl)methyl)-1H-pyrazole-4-carboxamide]", "values": [{"measurement": "EC50", "setting": "[1]", "value": "10 to 100", "unit": "nM"}]}, {"smiles": "CC1CC1c1ccc2nc(Cn3cc(C(=O)NCc4ncn5ccc(Cl)cc45)cn3)cn2c1", "note": "(stereo not shown) [Example I-43, N-((7-chloroimidazo[1,5-a]pyridin-1-yl)methyl)-1-((6-(2-methylcyclopropyl)imidazo[1,2-a]pyridin-2-yl)methyl)-1H-pyrazole-4-carboxamide]", "values": [{"measurement": "EC50", "setting": "[1]", "value": "< 1", "unit": "nM"}]}, {"smiles": "CC1CC1c1ccc2nc(Cn3cc(C(=O)NCc4ncn5ccc(Br)cc45)cn3)cn2c1", "note": "(stereo not shown) [Example I-44, N-((7-bromoimidazo[1,5-a]pyridin-1-yl)methyl)-1-((6-(2-methylcyclopropyl)imidazo[1,2-a]pyridin-2-yl)methyl)-1H-pyrazole-4-carboxamide]", "values": [{"measurement": "EC50", "setting": "[1]", "value": "< 1", "unit": "nM"}]}]}
